From patent US12098217B2, “Fusion peptides as antimicrobial agents” (CENTRE NATIONAL DE LA RECHERCHE SCIENTIFIQUE, priority 2019, dated 2024) come the findings set out here.

In test [1] the test system is E. coli ATCC 25922 (DSM 1103) strain. The format is cell-based. As to conditions: for MIC: ATCC 25922, 36 h. On the procedure: E. coli strains were cultivated on either agar or liquid 1× Mueller Hinton broth unless specified. MIC assays were performed in duplicate in 96-well microtiter plates on the basis of the protocol recommended by the Clinical and Laboratory Standards Institute. Briefly, a mix of 5-6 fresh (less than 36 hours) colonies grown on MH agar plates were inoculated in 3 ml of MH broth and incubated for about 16 h at 37° C. under agitation. 30 μl of this saturated culture were inoculated in 3 ml of fresh medium and allowed to grow until OD600 nm of about 0.6-0.8. Dilution to an OD600 nm of 0.002 was made in MH broth. Within a time laps not exceeding 30 min, 50 μl of this cell suspension was added to 50 μl of MH broth (containing or not the peptide/antibiotic diluted in MH broth) in wells of a 96-well round bottom microwell plate (Greiner; final cell density about 2 to 5×10^5 cfu/ml). Plates were incubated at 37° C. for 18-24 h and final turbidity of each well was measured at 620 nm using a Multiskan FC microplate reader (Thermo Scientific). MIC was defined as the minimal antibiotic concentration that result in no increase of turbidity at that time. Each MIC determination was performed in duplicate and at least in two independent experiments. Plating of 75 μl of the content of the wells of interest on LB Agar plates was used to determine the MBC that is defined by a decrease of at least 99.9% of cell viability as compared to the number of viable cells in the inoculum (about 2 to 5×10^4 cfu).
The antimicrobial activities of these peptides have been tested against the E. coli ATCC 25922 (DSM 1103) strain in 1× Mueller-Hinton broth as mentioned above.
The antimicrobial activities of these peptides and controls have been tested against the E. coli ATCC 25922 (DSM 1103) strain in 1× Mueller-Hinton broth.

In test [2] the test system is E. coli 70S ribosome (^Ec70S). In words: ITC, peptide interaction with E. coli 70S ribosome. The format is binding. How it is done: E. coli MRE600 cells were grown at 37° C. in LB medium until OD^600=1. Cells were centrifuged at 4° C., and pellets were resuspended in buffer A (20 mM Tris HCl pH 7.5; 200 mM NH4Cl; 20 mM MgCl2; 0.1 mM EDTA; 6 mM β-mercaptoethanol) and lysed using a French press at 1.6 kbar. The crude lysate was centrifuged (18 200 rpm) for 30 mn at 4° C. The supernatant was further centrifuged (47000 rpm) at 4° C. for 4 hours and the pellet resuspended in 12.5 ml of buffer A. This solution was laid on a 30% sucrose cushion and centrifuged (34 000 rpm) for 19 hours at 4° C. The ribosome pellet was resuspended in 12.5 ml buffer B (20 mM Tris HCl pH 7.5; 50 mM NH4Cl; 10 mM MgCl2; 0.1 mM EDTA; 6 mM β-mercaptoethanol) and centrifuged again (18 200 rpm) for 1 hour at 4° C. The supernatant was concentrated on Centrikon 100K (Millipore) and washed extensively with ITC 70S buffer. Ribosome concentration was determined by UV absorption at 260 nm. Samples were snap frozen in liquid nitrogen and kept at −80° C.
(§1) ITC experiments were performed on a iTC200 (Microcal Malvern Panalytical) or PEAQ-ITC instrument (Microcal Malvern Panalytical). The E. coli SC were washed extensively with ITC buffer (R1 buffer: 10 mM Hepes pH 7.4, 0.15 M NaCl, 3 mM EDTA) on Centrikon 10K at 4° C. before ITC experiments. […] Similarly, E. coli 70S ribosome particles were also washed extensively with ITC 70S buffer (50 mM Tris HCl pH7.5, 30 mM KCl, 70 mM NH4Cl, 7 mM MgCl2, 1 mM DTT, 5% glycerol) on Centrikon 100K at 4° C. before ITC experiments. Peptides (100 to 400 μM) were titrated at 30° C. (303.15 K) in sequential injections (usually 2 μl each) into a SC (20 or 30 μM) or 70S (10 to 15 μM) solution. Data were corrected from control experiments in which peptides were injected in ITC buffer solution. Each titration was performed at least twice. Analyses of experimental data were performed with AFFINImeter software (https://www.affinimeter.com; S4S, Santiago de Compostela, Spain).
The lack of interaction with the ribosome of E. coli has been measured by ITC at 30° C.:
The interactions of these peptides with the E. coli SC (beta ring) and the ribosome were measured by ITC at […]: […]

Test [3] concerns the target T1, E. coli SC (^EcSC, beta ring, DnaN) (Escherichia coli, UniProt P0A988).
T1 construct: inferred from the pET15b vector and the Ni-NTA/imidazole purification; made in house; host or cells: E. coli BL21 (DE3) pLys
The experiment in a line: ITC, peptide interaction with E. coli sliding clamp. The format is binding. As to conditions: ITC 25° C., E. coli SC (beta ring). How it is done: The DnaN protein was expressed from plasmids pET15b, containing the dnaN gene from E. coli, transfected in BL21 (DE3) pLys E. coli strain. Cells were grown in LB at 37° C. to OD 0.5, then induced by IPTG (0.1 mM) at 28° C. overnight. DnaN protein was first enriched on a Ni-NTA column, eluted with an imidazole step (300 mM) and further purified on a Source Q column in buffer containing 20 mM Tris HCl pH 7.5, 0.5 mM EDTA and 10% glycerol, using a gradient from 0 to 0.5 M NaCl. After a final ultracentrifugation (45K, 1 h, 20° C.), soluble proteins were concentrated on a Centricon 30K (Millipore) in the same buffer and stored at 4° C. in 2 M ammonium sulfate.
as §1, with “[…] […]” for “Peptides (100 to 400 μM) were titrated at 30° C. (303.15 K) in sequential injections (usually 2 μl each) into a SC (20 or 30 μM) or 70S (10 to 15 μM) solution.”
In general terms: In ITC the heat of successive injections is recorded.

Setting [4] is: ITC, 30° C., E. coli ribosome, FITC-Onc112 series.

Usually MIC stands for the smallest concentration in the dilution series that meets the test's criterion for growth inhibition. The Kd is the concentration at which binding is half-saturated.

Structures are written as SMILES. Converted amounts (≈) assume the structure as drawn. Square brackets hold non-standard residues; d marks the D form. Peptide text beside a SMILES is read from it. * marks the point of attachment. 5FAM = O=C1OC2(c3ccc(O)cc3Oc3cc(O)ccc32)c2ccc(C(=O)*)cc21; Phe(3,4-Cl2) = N[C@@H](Cc1ccc(Cl)c(Cl)c1)C(=O)O; Cha = N[C@@H](CC1CCCCC1)C(=O)O

T1 sequence (P0A988 whole entry): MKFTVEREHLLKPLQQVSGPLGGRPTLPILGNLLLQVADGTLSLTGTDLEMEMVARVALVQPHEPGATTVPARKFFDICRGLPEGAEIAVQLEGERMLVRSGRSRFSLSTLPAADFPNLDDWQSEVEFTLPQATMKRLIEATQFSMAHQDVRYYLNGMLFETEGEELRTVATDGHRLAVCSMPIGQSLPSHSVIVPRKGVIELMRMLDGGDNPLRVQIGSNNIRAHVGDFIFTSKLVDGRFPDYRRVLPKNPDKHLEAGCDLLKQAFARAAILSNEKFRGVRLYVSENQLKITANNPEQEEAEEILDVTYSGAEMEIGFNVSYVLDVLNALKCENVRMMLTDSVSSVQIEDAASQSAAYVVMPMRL

As for `CC[C@H](C)[C@H](NC(=O)[C@@H](CCCNC(=N)N)NC(=O)[C@H](CCCNC(=N)N)NC(=O)[C@@H]1CCCN1C(=O)[C@@H]1CCCN1C(=O)[C@H](CCCNC(=N)N)NC(=O)[C@@H]1CCCN1C(=O)[C@H](CCCNC(=N)N)NC(=O)[C@@H]1CCCN1C(=O)[C@H](CC(C)C)NC(=O)[C@H](Cc1ccc(O)cc1)NC(=O)[C@@H]1CCCN1C(=O)[C@@H]1CCCN1C(=O)[C@H](CCCCN)NC(=O)[C@H](CC(=O)O)NC(=O)[C@@H](NC(=O)[C@H](CCCCN)NC(=O)c1ccc2c(c1)C(=O)OC21c2ccc(O)cc2Oc2cc(O)ccc21)C(C)C)C(=O)N[C@@H](Cc1ccc(O)cc1)C(=O)N[C@@H](CC(N)=O)C(=O)N[C@H](CCCNC(=N)N)C(=O)NCC(=O)N1CCC[C@H]1C(=O)N[C@@H](CCCNC(=N)N)C(=O)N[C@@H](CCC(N)=O)C(=O)N[C@@H](CC1CCCCC1)C(=O)N[C@@H](CC(=O)O)C(=O)N[C@@H](CC(C)C)C(=O)N[C@@H](Cc1ccccc1)C(=O)O` [CM1-92] (5FAM-KVDKPPYLPRPRPPR[dR]IYN[dR]GPRQ[Cha]DLF-OH), in test [1], the “MIC” value worked out at 16 µM (≈ 61.5 µg/mL). Besides, the Kd in test [2] (setting [4]) is > 50 µM.

Take `CC[C@H](C)[C@H](NC(=O)[C@@H](CCCNC(=N)N)NC(=O)[C@H](CCCNC(=N)N)NC(=O)[C@@H]1CCCN1C(=O)[C@@H]1CCCN1C(=O)[C@H](CCCNC(=N)N)NC(=O)[C@@H]1CCCN1C(=O)[C@H](CCCNC(=N)N)NC(=O)[C@@H]1CCCN1C(=O)[C@H](CC(C)C)NC(=O)[C@H](Cc1ccc(O)cc1)NC(=O)[C@@H]1CCCN1C(=O)[C@@H]1CCCN1C(=O)[C@H](CCCCN)NC(=O)[C@H](CC(=O)O)NC(=O)[C@@H](NC(=O)[C@H](CCCCN)NC(=O)c1ccc2c(c1)C(=O)OC21c2ccc(O)cc2Oc2cc(O)ccc21)C(C)C)C(=O)N[C@@H](Cc1ccc(O)cc1)C(=O)N[C@@H](CC(N)=O)C(=O)N[C@H](CCCNC(=N)N)C(=O)NCC(=O)N1CCC[C@H]1C(=O)N[C@@H](CCCNC(=N)N)C(=O)N[C@@H](CCC(N)=O)C(=O)N[C@@H](CC1CCCCC1)C(=O)N[C@@H](CC(=O)O)C(=O)N[C@@H](CC(C)C)C(=O)N[C@@H](Cc1ccc(Cl)c(Cl)c1)C(=O)O` [CM1-94] (5FAM-KVDKPPYLPRPRPPR[dR]IYN[dR]GPRQ[Cha]DL[Phe(3,4-Cl2)]-OH; N-terminus assumed): in test [1], the “MIC” value is 4 to 8 µM. Moreover, in test [2] (setting [4]), the Kd is > 10 µM.

With `CC[C@H](C)[C@H](NC(=O)[C@@H](CCCNC(=N)N)NC(=O)[C@H](CCCNC(=N)N)NC(=O)[C@@H]1CCCN1C(=O)[C@@H]1CCCN1C(=O)[C@H](CCCNC(=N)N)NC(=O)[C@@H]1CCCN1C(=O)[C@H](CCCNC(=N)N)NC(=O)[C@@H]1CCCN1C(=O)[C@H](CC(C)C)NC(=O)[C@H](Cc1ccc(O)cc1)NC(=O)[C@@H]1CCCN1C(=O)[C@@H]1CCCN1C(=O)[C@H](CCCCN)NC(=O)[C@H](CC(=O)O)NC(=O)[C@@H](NC(=O)c1ccc2c(c1)C(=O)OC21c2ccc(O)cc2Oc2cc(O)ccc21)C(C)C)C(=O)N[C@@H](Cc1ccc(O)cc1)C(=O)N[C@@H](CC(N)=O)C(=O)N[C@H](CCCNC(=N)N)C(N)=O` [CA3-124] (5FAM-VDKPPYLPRPRPPR[dR]IYN[dR]-NH2), the “MIC” value in test [1] was 32 to 64 µM. Besides, in test [2] (setting [4]), the Kd turned out to be 7.7 µM, the “ΔG (kcal/mol)” value is on record as −7.1 (±0.4) kcal/mol and the “ΔH” value is -22.6 kcal/mol.

`CC[C@H](C)[C@H](NC(=O)[C@@H](CCCNC(=N)N)NC(=O)[C@H](CCCNC(=N)N)NC(=O)[C@@H]1CCCN1C(=O)[C@@H]1CCCN1C(=O)[C@H](CCCNC(=N)N)NC(=O)[C@@H]1CCCN1C(=O)[C@H](CCCNC(=N)N)NC(=O)[C@@H]1CCCN1C(=O)[C@H](CC(C)C)NC(=O)[C@H](Cc1ccc(O)cc1)NC(=O)[C@@H]1CCCN1C(=O)[C@@H]1CCCN1C(=O)[C@H](CCCCN)NC(=O)[C@H](CC(=O)O)NC(=O)[C@@H](NC(=O)[C@H](CCCNC(=N)N)NC(=O)[C@@H]1CCCN1C(=O)CNC(=O)[C@H](Cc1ccccc1)NC(=O)[C@H](CC(C)C)NC(=O)[C@H](CC(=O)O)NC(=O)[C@H](CC1CCCCC1)NC(=O)[C@H](CCC(N)=O)NC(C)=O)C(C)C)C(=O)N[C@@H](Cc1ccc(O)cc1)C(=O)N[C@@H](CC(N)=O)C(=O)N[C@H](CCCNC(=N)N)C(N)=O` [CM1-76] (Ac-Q[Cha]DLFGPRVDKPPYLPRPRPPR[dR]IYN[dR]-NH2): the “MIC” value in test [1] was 8 to 16 µM. Further, the “factor of improvement of antimicrobial activity versus CA3-30” value in test [1] (E. coli ATCC 25922, MIC) was 2. The “interaction with the E. coli ribosome (70S), in words” value in test [2] (ITC 25° C.) is “no interaction”. Besides, in test [3], the “ΔG” value is -9.0 kcal/mol and the “ΔH” value was -10.7 kcal/mol.
